We go through nine molecules from patent publication US20110046179A1, “NOVEL PIPERIDINE DERIVATIVES AND THEIR USE AS MONOAMINE NEUROTRANSMITTER RE-UPTAKE INHIBITORS” (priority 2006, published 2011).

The target in data set [1] is T1, noradrenaline (NA) reuptake in synaptosomes (Rattus norvegicus).
T1 construct: in synaptosomes as described in WO 97/16451; from tissue; host or cells: synaptosomes (brain tissue)
Kind of data set: Inhibition of NA reuptake in synaptosomes. Type of data set: biochemical. Particulars: 3H-NA, read-out: NA-uptake IC50. How it is done:
(§1) A number of compounds were tested for their ability to inhibit the reuptake of the monoamine neurotransmitters dopamine (DA) noradrenaline (NA) and serotonine (5-HT) in synaptosomes as described in WO 97/16451.
(§2) The test values are given as IC50 (the concentration (μM) of the test substance which inhibits the specific binding of ^3H-DA, ^3H-NA, or ^3H-5-HT by 50%).

Data set [2] concerns the target T2, dopamine (DA) reuptake in synaptosomes (Rattus norvegicus, UniProt P23977).
T2 construct: in synaptosomes as described in WO 97/16451; from tissue; host or cells: synaptosomes (brain tissue)
As to the kind of experiment: Inhibition of DA reuptake in synaptosomes. Type of data set: biochemical. Particulars: 3H-DA, read-out: DA-uptake IC50. The protocol:
as §1, §2

Data set [3] deals with T3, serotonine (5-HT) reuptake in synaptosomes (Rattus norvegicus, UniProt P31652).
T3 construct: in synaptosomes as described in WO 97/16451; from tissue; host or cells: synaptosomes (brain tissue)
As to the kind of experiment: Inhibition of 5-HT reuptake in synaptosomes. Particulars: 3H-5-HT, read-out: 5-HT-uptake IC50. Format: biochemical. How it is done: as §1, §2

Structures are written as SMILES. Where a name gives a salt, the structure may show the parent alone.

T1 sequence (Q63380 1-617): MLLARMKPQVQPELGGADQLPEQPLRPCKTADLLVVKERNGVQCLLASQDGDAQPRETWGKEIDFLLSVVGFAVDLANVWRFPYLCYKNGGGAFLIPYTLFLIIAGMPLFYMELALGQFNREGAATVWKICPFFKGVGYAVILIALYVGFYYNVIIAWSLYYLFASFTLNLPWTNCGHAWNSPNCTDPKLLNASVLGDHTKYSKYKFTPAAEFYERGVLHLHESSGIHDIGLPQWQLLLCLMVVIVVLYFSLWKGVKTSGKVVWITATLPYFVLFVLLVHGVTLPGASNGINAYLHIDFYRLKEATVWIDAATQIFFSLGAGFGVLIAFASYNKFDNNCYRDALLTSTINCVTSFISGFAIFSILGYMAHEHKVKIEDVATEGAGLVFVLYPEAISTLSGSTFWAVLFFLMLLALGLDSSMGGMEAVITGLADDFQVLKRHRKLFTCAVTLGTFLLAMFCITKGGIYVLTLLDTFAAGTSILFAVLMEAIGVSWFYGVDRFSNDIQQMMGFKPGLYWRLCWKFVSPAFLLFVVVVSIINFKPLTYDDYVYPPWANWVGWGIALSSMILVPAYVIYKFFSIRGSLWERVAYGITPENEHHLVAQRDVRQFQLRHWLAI
T2 sequence (P23977 whole entry): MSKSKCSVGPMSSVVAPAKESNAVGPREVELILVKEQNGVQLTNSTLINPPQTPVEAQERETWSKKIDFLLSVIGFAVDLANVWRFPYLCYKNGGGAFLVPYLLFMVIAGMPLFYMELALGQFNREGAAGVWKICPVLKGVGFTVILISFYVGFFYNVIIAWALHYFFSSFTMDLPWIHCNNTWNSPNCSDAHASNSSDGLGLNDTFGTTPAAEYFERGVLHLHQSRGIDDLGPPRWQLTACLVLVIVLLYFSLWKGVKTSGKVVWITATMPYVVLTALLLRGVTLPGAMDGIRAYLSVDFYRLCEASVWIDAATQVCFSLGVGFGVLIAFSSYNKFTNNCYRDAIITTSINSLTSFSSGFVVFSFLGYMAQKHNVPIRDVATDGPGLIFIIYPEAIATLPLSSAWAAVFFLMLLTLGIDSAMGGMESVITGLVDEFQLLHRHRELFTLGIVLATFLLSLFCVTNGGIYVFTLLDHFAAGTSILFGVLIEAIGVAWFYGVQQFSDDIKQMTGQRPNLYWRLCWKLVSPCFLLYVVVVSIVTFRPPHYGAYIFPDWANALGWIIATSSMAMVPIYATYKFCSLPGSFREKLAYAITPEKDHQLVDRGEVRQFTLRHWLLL
T3 sequence (P31652 whole entry): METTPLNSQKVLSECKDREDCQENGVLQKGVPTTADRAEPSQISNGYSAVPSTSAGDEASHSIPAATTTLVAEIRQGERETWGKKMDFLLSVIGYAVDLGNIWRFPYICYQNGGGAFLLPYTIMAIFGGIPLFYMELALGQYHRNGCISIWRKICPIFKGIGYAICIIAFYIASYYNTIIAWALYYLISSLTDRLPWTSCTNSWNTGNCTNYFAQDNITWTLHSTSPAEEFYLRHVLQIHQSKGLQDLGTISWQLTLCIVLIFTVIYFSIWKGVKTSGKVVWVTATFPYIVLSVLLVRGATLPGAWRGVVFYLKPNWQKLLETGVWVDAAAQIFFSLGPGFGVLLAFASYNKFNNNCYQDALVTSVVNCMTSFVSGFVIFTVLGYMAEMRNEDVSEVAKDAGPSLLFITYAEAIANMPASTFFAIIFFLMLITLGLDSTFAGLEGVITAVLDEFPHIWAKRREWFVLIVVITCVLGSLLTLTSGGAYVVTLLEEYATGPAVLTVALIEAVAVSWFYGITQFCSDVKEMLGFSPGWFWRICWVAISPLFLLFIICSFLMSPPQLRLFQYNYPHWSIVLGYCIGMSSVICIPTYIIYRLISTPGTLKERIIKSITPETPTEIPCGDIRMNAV

On to `COCC1(Cc2cccc(Cl)c2Cl)CCNCC1` (as salt: fumarate) [Compound 5ba, 4-(2,3-Dichloro-benzyl)-4-methoxymethyl-piperidine], for which the melting point was 167 to 168.4 °C.

`Clc1ccc(CC2(COc3cccc(Cl)c3Cl)CCNCC2)cc1Cl` [Compound 5ad, 4-(3,4-Dichloro-benzyl)-4-(2,3-dichloro-phenoxymethyl)-piperidine] showed a melting point of 93.9 to 94.6 °C.

`COCC1(Cc2ccc3ccccc3c2)CCNCC1` (as salt: fumarate) [Compound 5da, 4-Methoxymethyl-4-naphthalen-2-ylmethyl-piperidine] registered a melting point of 139 to 142 °C.

The molecule `Clc1ccc(CC2(COc3ccccc3)CCNCC2)cc1Cl` (as salt: fumarate) [Compound 5ac, 4-(3,4-Dichloro-benzyl)-4-phenoxymethyl-piperidine] came in with a melting point of 165 to 167 °C.

The molecule `Clc1ccc(CC2(COc3ccc(Cl)c(Cl)c3)CCNCC2)cc1Cl` (as salt: fumarate) [Compound 5ae, 4-(3,4-Dichloro-benzyl)-4-(3,4-dichloro-phenoxymethyl)-piperidine] registered a melting point of 166.3 to 168.9 °C.

`CCOCC1(Cc2ccc(Cl)c(Cl)c2)CCNCC1.O=C(O)/C=C/C(=O)O` came in with a melting point of 147.4 to 150.6 °C.

For `OCC1(Cc2ccc(Cl)c(Cl)c2)CCNCC1` [Compound 5a, [4-(3,4-Dichloro-benzyl)-piperidin-4-yl]-methanol], the melting point fell in the range of 147.7 to 148.7 °C.

As for `Clc1ccc(OCC2(Cc3ccccc3)CCNCC2)cc1Cl` [Compound 5ce, 4-Benzyl-4-(3,4-dichloro-phenoxymethyl)-piperidine], the melting point fell in the range of 77.7 to 79.3 °C. In addition, the IC50 in data set [1] is 4.8 nM. The IC50 in data set [2] was found to be 6 nM. For the same molecule, the IC50 in data set [3] stood at 0.26 nM.

For `COCC1(Cc2ccc(Cl)c(Cl)c2)CCNCC1.O=C(O)/C=C/C(=O)O` [Compound 5aa, 4-(3,4-Dichloro-benzyl)-4-methoxymethyl-piperidine fumaric acid salt], the melting point lay within 158.1 to 162.2 °C. For the same molecule, in data set [1], the IC50 is 480 nM. Also, the IC50 in data set [2] stood at 1600 nM. Also, the IC50 in data set [3] was 22 nM.
